Conditions: Liquid, Vibrating tube method

CCOC(C)(C)C [2-ethoxy-2-methylpropane]
Conditions	mass density [kg/m3]
283.15 K, 100 kPa	751.23
283.15 K, 5000 kPa	756.42
283.15 K, 10000 kPa	761.33
283.15 K, 15000 kPa	765.98
283.15 K, 20000 kPa	770.36
283.15 K, 25000 kPa	774.54
283.15 K, 30000 kPa	778.52
283.15 K, 35000 kPa	782.33
283.15 K, 40000 kPa	785.98
283.15 K, 45000 kPa	789.49
283.15 K, 50000 kPa	792.89
283.15 K, 55000 kPa	796.17
283.15 K, 60000 kPa	799.33
283.15 K, 65000 kPa	802.42
288.15 K, 100 kPa	746.2
288.15 K, 5000 kPa	751.53
288.15 K, 10000 kPa	756.63
288.15 K, 15000 kPa	761.42
288.15 K, 20000 kPa	765.93
288.15 K, 25000 kPa	770.23
288.15 K, 30000 kPa	774.31
288.15 K, 35000 kPa	778.21
288.15 K, 40000 kPa	781.97
288.15 K, 45000 kPa	785.55
288.15 K, 50000 kPa	789.02
288.15 K, 55000 kPa	792.37
288.15 K, 60000 kPa	795.56
288.15 K, 65000 kPa	798.71
293.15 K, 100 kPa	741.05
293.15 K, 5000 kPa	746.6
293.15 K, 10000 kPa	751.89
293.15 K, 15000 kPa	756.83
293.15 K, 20000 kPa	761.5
293.15 K, 25000 kPa	765.92
293.15 K, 30000 kPa	770.13
293.15 K, 35000 kPa	774.13
293.15 K, 40000 kPa	777.97
293.15 K, 45000 kPa	781.65
293.15 K, 50000 kPa	785.19
293.15 K, 55000 kPa	788.63
293.15 K, 60000 kPa	791.91
293.15 K, 65000 kPa	795.1
298.15 K, 100 kPa	735.9
298.15 K, 5000 kPa	741.67
298.15 K, 10000 kPa	747.14
298.15 K, 15000 kPa	752.27
298.15 K, 20000 kPa	757.08
298.15 K, 25000 kPa	761.61
298.15 K, 30000 kPa	765.96
298.15 K, 35000 kPa	770.04
298.15 K, 40000 kPa	773.96
298.15 K, 45000 kPa	777.75
298.15 K, 50000 kPa	781.37
298.15 K, 55000 kPa	784.85
298.15 K, 60000 kPa	788.21
298.15 K, 65000 kPa	791.48
303.15 K, 100 kPa	730.67
303.15 K, 5000 kPa	736.68
303.15 K, 10000 kPa	742.38
303.15 K, 15000 kPa	747.69
303.15 K, 20000 kPa	752.63
303.15 K, 25000 kPa	757.33
303.15 K, 30000 kPa	761.74
303.15 K, 35000 kPa	765.95
303.15 K, 40000 kPa	769.98
303.15 K, 45000 kPa	773.86
303.15 K, 50000 kPa	777.57
303.15 K, 55000 kPa	781.12
303.15 K, 60000 kPa	784.56
303.15 K, 65000 kPa	787.89
308.15 K, 100 kPa	725.44
308.15 K, 5000 kPa	731.69
308.15 K, 10000 kPa	737.6
308.15 K, 15000 kPa	743.07
308.15 K, 20000 kPa	748.18
308.15 K, 25000 kPa	753.01
308.15 K, 30000 kPa	757.57
308.15 K, 35000 kPa	761.9
308.15 K, 40000 kPa	766.03
308.15 K, 45000 kPa	769.97
308.15 K, 50000 kPa	773.76
308.15 K, 55000 kPa	777.4
308.15 K, 60000 kPa	780.9
308.15 K, 65000 kPa	784.29
313.15 K, 100 kPa	720.14
313.15 K, 5000 kPa	726.68
313.15 K, 10000 kPa	732.78
313.15 K, 15000 kPa	738.45
313.15 K, 20000 kPa	743.71
313.15 K, 25000 kPa	748.69
313.15 K, 30000 kPa	753.36
313.15 K, 35000 kPa	757.81
313.15 K, 40000 kPa	762.03
313.15 K, 45000 kPa	766.08
313.15 K, 50000 kPa	769.94
313.15 K, 55000 kPa	773.66
313.15 K, 60000 kPa	777.23
313.15 K, 65000 kPa	780.69
318.15 K, 100 kPa	714.82
318.15 K, 5000 kPa	721.59
318.15 K, 10000 kPa	727.94
318.15 K, 15000 kPa	733.82
318.15 K, 20000 kPa	739.27
318.15 K, 25000 kPa	744.39
318.15 K, 30000 kPa	749.2
318.15 K, 35000 kPa	753.76
318.15 K, 40000 kPa	758.08
318.15 K, 45000 kPa	762.23
318.15 K, 50000 kPa	766.19
318.15 K, 55000 kPa	769.98
318.15 K, 60000 kPa	773.61
318.15 K, 65000 kPa	777.13
323.15 K, 100 kPa	709.43
323.15 K, 5000 kPa	716.51
323.15 K, 10000 kPa	723.13
323.15 K, 15000 kPa	729.2
323.15 K, 20000 kPa	734.81
323.15 K, 25000 kPa	740.06
323.15 K, 30000 kPa	745.02
323.15 K, 35000 kPa	749.69
323.15 K, 40000 kPa	754.13
323.15 K, 45000 kPa	758.36
323.15 K, 50000 kPa	762.39
323.15 K, 55000 kPa	766.26
323.15 K, 60000 kPa	770
323.15 K, 65000 kPa	773.58
328.15 K, 100 kPa	703.95
328.15 K, 5000 kPa	711.38
328.15 K, 10000 kPa	718.21
328.15 K, 15000 kPa	724.52
328.15 K, 20000 kPa	730.3
328.15 K, 25000 kPa	735.75
328.15 K, 30000 kPa	740.83
328.15 K, 35000 kPa	745.64
328.15 K, 40000 kPa	750.18
328.15 K, 45000 kPa	754.48
328.15 K, 50000 kPa	758.63
328.15 K, 55000 kPa	762.55
328.15 K, 60000 kPa	766.37
328.15 K, 65000 kPa	770.52
333.15 K, 100 kPa	698.45
333.15 K, 5000 kPa	706.19
333.15 K, 10000 kPa	713.35
333.15 K, 15000 kPa	719.84
333.15 K, 20000 kPa	725.83
333.15 K, 25000 kPa	731.42
333.15 K, 30000 kPa	736.64
333.15 K, 35000 kPa	741.54
333.15 K, 40000 kPa	746.21
333.15 K, 45000 kPa	750.65
333.15 K, 50000 kPa	754.86
333.15 K, 55000 kPa	758.88
333.15 K, 60000 kPa	762.77
333.15 K, 65000 kPa	766.51
